Non-standard residues stand in square brackets, D forms with d. Residues, ends and D or L forms follow the SMILES beside them. NMeF = CN[C@@H](Cc1ccccc1)C(=O)O; PhLac = O=C(O)[C@@H](O)Cc1ccccc1; Hica(2S) = CC(C)C[C@H](O)C(=O)O; NMeL = CN[C@@H](CC(C)C)C(=O)O; dHica = CC(C)C[C@@H](O)C(=O)O; dNMeL = CN[C@H](CC(C)C)C(=O)O
How the values were obtained:
in vitro = in vitro ADME
[1] = 1,9-decadiene-water distribution coefficient; assay type: physicochemical; conditions: decadiene and aqueous buffer
[2] = Stability in simulated intestinal fluid (SIF); assay type: in vitro ADME; conditions: pH 6.8, 37 °C, at 4 h
Method: (§1) The stability assay of peptides in SIF was conducted according to United States Pharmacopeia & National Formulary (USP 25-NF 20)[64] and the previous report[65] with some modifications as follows. SIF used in this study was prepared by dissolving pancreatin (1.25 mg/mL) (Sigma, P7545, 8 × USP specifications) in 50 mM phosphate buffer at pH 6.8. The solution was vortexed for 1 min, sonicated for 15 min, centrifuged at 20,000 × g for 10 min, and filtered before use. 57 μL of SIF was incubated at 37 °C for 15 min and 3 μL of 1 μM peptide solution in DMSO was added to the warmed […]. After 1, 2, or 4 h, 60 μL of ice-cold ultra-pure water containing 5% trifluoroacetic acid was added and 120 μL of 30% acetonitrile in ultra-pure water was added. The samples were filtered and injected into UPLC.

[3] = Stability in simulated gastric fluid (SGF); assay type: in vitro ADME; conditions: pH 1.2, 37 °C, at 4 h
Method: as §1, with “SGF” for “SIF”, “pepsin (3.6” for “pancreatin (1.25”, “P7012, 3357 Unit/mg)” for “P7545, 8 × USP specifications)”, “an aqueous solution of 2 mg/mL sodium chloride (NaCl)” for “50 mM phosphate buffer”, “1.2.” for “6.8.”

[4] = Caco-2 assay (permeability across cell monolayers); assay type: in vitro ADME; conditions: Caco-2, 1 μM compounds in HBSS (pH 7.4) containing 10 mM HEPES and 1% DMSO, 3 h incubation at 37 °C, read-out: Caco-2 permeability Pa
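Wherever Pe (PAMPA), CP1-Y1F-L2K series is given: filter plate membrane of 1% soybean lecithin in dodecane, donor and acceptor in 5% DMSO/PBS, incubated at 25 °C, peptide in both compartments measured by LC-MS.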

CC(C)C[C@@H]1NC(=O)[C@H]2CCCN2C(=O)[C@H](CC(C)C)N(C)C(=O)[C@@H](C(C)C)NC(=O)[C@H](CC(C)C)NC(=O)[C@H]2CCCN2C(=O)[C@H](CC(C)C)N(C)C(=O)[C@@H](C(C)C)NC1=O [D8.21, reference compound] (cyclo(L[dV][NMeL][dP]L[dV][NMeL][dP]))
Papp at 16 h, 3 μM (in vitro; PAMPA): 8.2 ×10⁻⁶ cm/s

CC(=O)N[C@@H](CC(C)C)C(=O)N(C)[C@@H](CC(C)C)C(N)=O [M3]
log Ddec/w (1,9-decadiene–water distribution coefficient) [1]: –2.13 ± 0.02
Papp (in vitro; PAMPA, pH 7.4): 0.1 ×10⁻⁶ cm/s

CC(C)C[C@@H]1NC(=O)[C@@H](CC(C)C)NC(=O)[C@H](CCCCN)NC(=O)[C@H](Cc2ccccc2)NC(=O)[C@H]2CCCN2C(=O)[C@H](CC(C)C)NC1=O [CP1-Y1F-L2K] (cyclo(FK[dL]LL[dP]))
Papp (in vitro; PAMPA): < 0.0007 ×10⁻⁶ cm/s

CC(=O)N[C@@H](Cc1ccccc1)C(=O)N[C@@H](Cc1ccccc1)C(N)=O [P1] (Ac-Phe-Phe-NH2)
log Ddec/w (1,9-decadiene–water distribution coefficient) [1]: –2.75 ± 0.01

CC[C@H](C)[C@@H]1NC(=O)[C@H](Cc2ccc(O)cc2)NC(=O)[C@@H](N)CSSC[C@@H](C(=O)N2CCC[C@H]2C(=O)N[C@@H](CC(C)C)C(=O)NCC(N)=O)NC(=O)[C@H](CC(N)=O)NC(=O)[C@H](CCC(N)=O)NC1=O [oxytocin, reference compound]
Fraction degraded in SIF ([2]; SIF-containing pancreatin): more than 90%
metabolised at 4 h, 0.05 μM ([2]; simulated intestinal fluid (SIF) containing pancreatin, read-out: Fraction degraded in SIF): 94%

CC(=O)N[C@@H](Cc1ccccc1)C(=O)N(C)[C@@H](Cc1ccccc1)C(N)=O [M1] (Ac-Phe-[NMeF]-NH2)
log Ddec/w (1,9-decadiene–water distribution coefficient) [1]: –1.24 ± 0.01

CC(C)C[C@@H]1NC(=O)[C@@H](CC(C)C)NC(=O)[C@H](CCCCN)NC(=O)[C@H](Cc2ccccc2)N(C)C(=O)[C@H]2CCCN2C(=O)[C@H](CC(C)C)NC1=O [CP1-Y1F-L2K NMe] (cyclo(K[dL]LL[dP][NMeF]))
Papp (in vitro; PAMPA): < 0.00075 ×10⁻⁶ cm/s

CC(C)C[C@@H]1C(=O)N[C@H](C(C)C)C(=O)N[C@H](C)C(=O)N2CCC[C@@H]2C(=O)N[C@H](CC(C)C)C(=O)N[C@H](C(C)C)C(=O)N[C@H](C)C(=O)N2CCC[C@@H]2C(=O)N1C (cyclo([dA][dP][dL][dV][dA][dP][dNMeL][dV]))
Papp at 16 h, 3 μM (in vitro; PAMPA): 0.01 ×10⁻⁶ cm/s

CC(C)C[C@@H]1NC(=O)[C@H]2CCCN2C(=O)[C@H](CC(C)C)NC(=O)[C@@H](C(C)C)NC(=O)[C@H](CC(C)C)NC(=O)[C@H]2CCCN2C(=O)[C@H](CC(C)C)N(C)C(=O)[C@@H](C(C)C)NC1=O [D8.21-amide] (cyclo(L[dP]L[dV][NMeL][dP]L[dV]))
Papp at 16 h, 3 μM (in vitro; PAMPA): 1.6 ×10⁻⁶ cm/s

C[C@H](N)C(=O)NCC(=O)N[C@H]1CSSC[C@@H](C(=O)O)NC(=O)[C@H](CO)NC(=O)[C@H]([C@@H](C)O)NC(=O)[C@H](Cc2ccccc2)NC(=O)[C@H]([C@@H](C)O)NC(=O)[C@H](CCCCN)NC(=O)[C@H](Cc2c[nH]c3ccccc23)NC(=O)[C@H](Cc2ccccc2)NC(=O)[C@H](Cc2ccccc2)NC(=O)[C@H](CC(N)=O)NC(=O)[C@H](CCCCN)NC1=O [somatostatin, reference compound]
Fraction degraded in SGF ([3]; SGF-containing pepsin): more than 90%
metabolised at 4 h, 0.05 μM ([3]; simulated gastric fluid (SGF) containing pepsin, read-out: Fraction degraded in SGF): 98%

CC(C)C[C@@H]1NC(=O)[C@H](CC(C)C)N(C)C(=O)[C@@H](C(C)C)NC(=O)[C@H](C)NC(=O)[C@H](C)NC(=O)[C@H]2CCCN2C(=O)[C@@H](CC(C)C)NC(=O)[C@@H]2CCCN2C(=O)[C@H](CC(C)C)NC1=O (relative stereo)
Papp at 16 h, 3 μM (in vitro; PAMPA): 0.1 ×10⁻⁶ cm/s

CC(=O)N[C@@H](CC(C)C)C(=O)N(C)[C@@H](Cc1ccccc1)C(N)=O [M2] (Ac-Leu-[NMeF]-NH2)
log Ddec/w (1,9-decadiene–water distribution coefficient) [1]: –1.62 ± 0.02
Papp (in vitro; PAMPA, pH 7.4): 0.2 ×10⁻⁶ cm/s

CC(C)C[C@@H]1NC(=O)[C@@H](CC(C)C)NC(=O)[C@H](CO)NC(=O)[C@H](Cc2ccccc2)OC(=O)[C@H]2CCCN2C(=O)[C@H](CC(C)C)NC1=O [CP1-Y1F-L2S O] (cyclo(LL[dP][PhLac]S[dL]))
Papp (in vitro; PAMPA): 4.1 ×10⁻⁶ cm/s

CC(C)C[C@@H]1C(=O)N[C@H](C(C)C)C(=O)N[C@H](C)C(=O)N2CCC[C@@H]2C(=O)N(C)[C@H](CC(C)C)C(=O)N[C@H](C(C)C)C(=O)N[C@H](C)C(=O)N2CCC[C@@H]2C(=O)N1C [D8.31, reference compound] (cyclo([dA][dP][dNMeL][dV][dA][dP][dNMeL][dV]))
Papp at 16 h, 3 μM (in vitro; PAMPA): 0.2 ×10⁻⁶ cm/s

CC(C)C[C@@H]1NC(=O)[C@H](CC(C)C)N(C)C(=O)[C@@H](C(C)C)NC(=O)[C@H](C)NC(=O)[C@H](C)OC(=O)[C@H]2CCCN2C(=O)[C@@H](CC(C)C)NC(=O)[C@@H]2CCCN2C(=O)[C@H](CC(C)C)NC1=O (relative stereo)
Papp at 16 h, 3 μM (in vitro; PAMPA): 1.1 ×10⁻⁶ cm/s

CC(C)C[C@@H]1NC(=O)[C@H](Cc2ccc(O)cc2)NC(=O)[C@H]2CCCN2C(=O)[C@H](CC(C)C)NC(=O)[C@H](CC(C)C)OC(=O)[C@@H](CC(C)C)NC1=O [DP4] (cyclo(L[dL][Hica(2S)]L[dP]Y))
Papp (in vitro; PAMPA): 4.2 ×10⁻⁶ cm/s
Papp [4]: 1.2 ×10⁻⁶ cm/s

CC(C)C[C@@H]1NC(=O)[C@@H](CC(C)C)NC(=O)[C@H](CC(C)C)N(C)C(=O)[C@H](Cc2ccc(O)cc2)NC(=O)[C@H]2CCCN2C(=O)[C@H](CC(C)C)NC1=O [MP2] (cyclo(LL[dP]Y[NMeL][dL]))
Papp (in vitro; PAMPA): 1 ×10⁻⁶ cm/s
Papp [4]: 0.3 ×10⁻⁶ cm/s

CC(C)C[C@@H]1NC(=O)[C@@H](CC(C)C)NC(=O)[C@H](CCCCN)NC(=O)[C@H](Cc2ccccc2)OC(=O)[C@H]2CCCN2C(=O)[C@H](CC(C)C)NC1=O [CP1-Y1F-L2K O] (cyclo(K[dL]LL[dP][PhLac]))
Pe (PAMPA), CP1-Y1F-L2K series (in vitro): 4.9 ×10⁻⁶ cm/s
Papp (in vitro; PAMPA): 0.0049 ×10⁻⁶ cm/s

CC(C)C[C@@H]1C(=O)N[C@H](C(C)C)C(=O)N[C@H](C)C(=O)N2CCC[C@@H]2C(=O)O[C@H](CC(C)C)C(=O)N[C@H](C(C)C)C(=O)N[C@H](C)C(=O)N2CCC[C@@H]2C(=O)N1C (cyclo([dA][dP][dNMeL][dV][dA][dP][dHica][dV]))
Papp at 16 h, 3 μM (in vitro; PAMPA): 0.03 ×10⁻⁶ cm/s

CC(C)C[C@@H]1NC(=O)[C@@H](CC(C)C)N(C)C(=O)[C@H](CC(C)C)NC(=O)[C@H](Cc2ccc(O)cc2)NC(=O)[C@H]2CCCN2C(=O)[C@H](CC(C)C)NC1=O [MP3] (cyclo(LL[dP]YL[dNMeL]))
Papp at 16 h, 2 μM (in vitro; PAMPA): 0.6 ×10⁻⁶ cm/s
Papp at 3 h, 1 μM ([4]; human): 0.2 ×10⁻⁶ cm/s

CC(C)C[C@@H]1NC(=O)[C@H](Cc2ccc(O)cc2)NC(=O)[C@H]2CCCN2C(=O)[C@H](CC(C)C)NC(=O)[C@H](CC(C)C)N(C)C(=O)[C@@H](CC(C)C)NC1=O [MP4] (cyclo(L[dL][NMeL]L[dP]Y))
Papp (in vitro; PAMPA): 2.5 ×10⁻⁶ cm/s
Papp [4]: 0.5 ×10⁻⁶ cm/s

CC(C)C[C@@H]1NC(=O)[C@@H](CC(C)C)OC(=O)[C@H](CC(C)C)NC(=O)[C@H](Cc2ccc(O)cc2)NC(=O)[C@H]2CCCN2C(=O)[C@H](CC(C)C)NC1=O [DP3] (cyclo(LL[dP]YL[dHica]))
Papp (in vitro; PAMPA): 1.3 ×10⁻⁶ cm/s
Papp [4]: 0.2 ×10⁻⁶ cm/s

CC(C)C[C@@H]1NC(=O)[C@@H](CC(C)C)NC(=O)[C@H](CO)NC(=O)[C@H](Cc2ccccc2)NC(=O)[C@H]2CCCN2C(=O)[C@H](CC(C)C)NC1=O [CP1-Y1F-L2S] (cyclo(FS[dL]LL[dP]))
Papp (in vitro; PAMPA): 0.3 ×10⁻⁶ cm/s

CC(C)C[C@@H]1NC(=O)[C@@H](CC(C)C)NC(=O)[C@H](CO)NC(=O)[C@H](Cc2ccccc2)N(C)C(=O)[C@H]2CCCN2C(=O)[C@H](CC(C)C)NC1=O [CP1-Y1F-L2S NMe] (cyclo(LL[dP][NMeF]S[dL]))
Papp (in vitro; PAMPA): 0.5 ×10⁻⁶ cm/s

CC(=O)N[C@@H](Cc1ccccc1)C(=O)O[C@@H](Cc1ccccc1)C(N)=O [D1]
log Ddec/w (1,9-decadiene–water distribution coefficient) [1]: –1.17 ± 0.01
Papp (in vitro; PAMPA, pH 7.4): 1.2 ×10⁻⁶ cm/s

CC(C)C[C@@H]1NC(=O)[C@H](Cc2ccc(O)cc2)NC(=O)[C@H]2CCCN2C(=O)[C@H](CC(C)C)N(C)C(=O)[C@H](CC(C)C)NC(=O)[C@@H](CC(C)C)NC1=O [MP5] (cyclo(L[NMeL][dP]YL[dL]))
Papp (in vitro; PAMPA): 1.7 ×10⁻⁶ cm/s
Papp [4]: 1.2 ×10⁻⁶ cm/s

CC(C)C[C@@H]1NC(=O)[C@H](Cc2ccc(O)cc2)NC(=O)[C@H]2CCCN2C(=O)[C@H](CC(C)C)OC(=O)[C@H](CC(C)C)NC(=O)[C@@H](CC(C)C)NC1=O [DP5] (cyclo(L[dL]L[Hica(2S)][dP]Y))
Papp (in vitro; PAMPA): 4.4 ×10⁻⁶ cm/s
Papp [4]: 2.8 ×10⁻⁶ cm/s

CC(C)C[C@@H]1NC(=O)[C@H]2CCCN2C(=O)[C@H](CC(C)C)OC(=O)[C@@H](C(C)C)NC(=O)[C@H](CC(C)C)NC(=O)[C@H]2CCCN2C(=O)[C@H](CC(C)C)N(C)C(=O)[C@@H](C(C)C)NC1=O [D8.21-ester] (cyclo(L[dV][NMeL][dP]L[dV][Hica(2S)][dP]))
Papp at 16 h, 3 μM (in vitro; PAMPA): 5.8 ×10⁻⁶ cm/s

Reference: paper PMC10023679, “Amide-to-ester substitution as a stable alternative to N-methylation for increasing membrane permeability in cyclic peptides” (Nature Communications, 2023)
